Reference: ChEMBL document CHEMBL4842340, “Development of Cagrilintide, a Long-Acting Amylin Analogue” (J Med Chem, 2021)
Values after ≈ are worked out from the molar mass of the structure shown. *1 amine or outer side, *2 acyl side, *3 side chain or, on linkers, in order; H or OH if unused. Where a SMILES comes first, the peptide text is derived from it. Bridges are numbered along the chain shown (N, C = ends). [ ]: non-standard residue; d: D form. The star is where a group is joined. C20 diacid = O=C(O)CCCCCCCCCCCCCCCCCCC(=O)*; γGlu = O=C(O)[C@H](CCC(=O)[*:2])N[*:1]; AEEA = NCCOCCOCC(=O)O

How the values were obtained:
[1] = Agonist activity at human AMY3R (CT+RAMP3) expressed in Hollex1 cells incubated for 3 hrs by luminescence assay; format: cell-based; conditions: Hollex1, 3 h
[2] = Agonist activity at human calcitonin receptor expressed in BHK570 cells assessed as increase in intracellular cAMP concentration incubated for 3 hrs in absence of albumin by CRE luciferase reporter gene assay; format: cell-based; conditions: BHK570, 3 h
Homo sapiens [3] = organism: Homo sapiens; test: Ratio of EC50 for human calcitonin receptor expressed in BHK570 cells to EC50 for human AMY3R (CT+RAMP3) expressed in Hollex1 cells; format: cell-based
[4] = Displacement of [125I]-amylin from human AMY3R (CTR+RAMP3) expressed in BHK-13 cells measured after 120 mins by scintillation proximity assay; format: cell-based
[5] = Displacement of [125I]-calcitonin from human calcitonin receptor expressed in tk-ts 13 cells measured after 120 mins by scintillation proximity assay; format: cell-based; conditions: tk-ts13
Homo sapiens [6] = organism: Homo sapiens; test: Ratio of IC50 for displacement of [125I]-calcitonin from human calcitonin receptor expressed in tk-ts 13 cells to IC50 for displacement of [125I]-amylin from human AMY3R (CTR+RAMP3) expressed in BHK-13 cells; format: cell-based
[7] = Displacement of [125I]-amylin from rat AMY3R (CTR+RAMP3) expressed in BHK-13 cells measured after 120 mins by scintillation proximity assay; format: cell-based
[8] = Displacement of [125I]-calcitonin from rat calcitonin receptor expressed in tk-ts 13 cells measured after 120 mins by scintillation proximity assay; format: cell-based; conditions: tk-ts13
Rattus norvegicus [9] = organism: Rattus norvegicus; test: Ratio of IC50 for displacement of [125I]-calcitonin from rat calcitonin receptor expressed in tk-ts 13 cells to IC50 for displacement of [125I]-amylin from rat AMY3R (CTR+RAMP3) expressed in BHK-13 cells; format: cell-based
[10] = Solubility of the compound in lactate at pH 3 by UPLC analysis; format: physicochemical; conditions: lactate buffer
[11] = Solubility of the compound in lactate at pH 4 by UPLC analysis; format: physicochemical; conditions: lactate buffer
[12] = Solubility of the compound in lactate at pH 5 by UPLC analysis; format: physicochemical; conditions: lactate buffer
[13] = Solubility of the compound in bis-tris propane at pH 6 by UPLC analysis; format: physicochemical; conditions: bis-tris propane buffer
[14] = Solubility of the compound in bis-tris propane at pH 6.5 by UPLC analysis; format: physicochemical; conditions: bis-tris propane buffer
[15] = Solubility of the compound in bis-tris propane at pH 7 by UPLC analysis; format: physicochemical; conditions: bis-tris propane buffer
Insulin (Homo sapiens) [16] = target: Insulin (Homo sapiens) (UniProt P01308); test: Effect on insulin (unknown origin) amyloid fibril formation assessed as lag time in glycyl-glycine buffer at pH 4 measured after 45 hrs by thioflavin-T fluorescence assay
Insulin (Homo sapiens) [17] = target: Insulin (Homo sapiens) (UniProt P01308); test: Effect on insulin (unknown origin) amyloid fibril formation assessed as peptide recovery in glycyl-glycine buffer at pH 4 measured after 45 hrs by thioflavin-T fluorescence assay relative to control; parameters: concentration or dose not given beside the values
Rattus norvegicus [18] = test: Reduction in food intake in Sprague-Dawley rat at 3 nmol/kg, sc administered as single dose measured upto 24 hrs relative to control; format: functional; parameters: scale not given: the % may be the effect or the level left; conditions: time hrs <=24
Rattus norvegicus [19] = test: Reduction in food intake in Sprague-Dawley rat at 3 nmol/kg, sc administered as single dose measured after 24 to 48 hrs relative to control; format: functional; parameters: scale not given: the % may be the effect or the level left; conditions: time 24-48 hrs
[20] = Agonist activity at rat AMY3R (CT+RAMP3) expressed in tk-ts13 cells assessed as increase in intracellular cAMP level incuabted for 25 mins by CRE luciferase reporter gene assay; format: cell-based; conditions: tk-ts13, 25 min
[21] = Agonist activity at rat calcitonin receptor expressed in BHK-13 cells assessed as increase in intracellular cAMP concentration incubated for 25 mins by CRE luciferase reporter gene assay; format: cell-based; conditions: BHK-13, 25 min
Rattus norvegicus [22] = organism: Rattus norvegicus; test: Ratio of EC50 for rat calcitonin receptor expressed in BHK-13 cells to EC50 for rat AMY3R (CT+RAMP3) expressed in tk-ts13 cells; format: cell-based
[23] = Solubility of the compound in bis-tris propane at pH 7.5 by UPLC analysis; format: physicochemical; conditions: bis-tris propane buffer
[24] = Solubility of the compound in bis-tris propane at pH 8 by UPLC analysis; format: physicochemical; conditions: bis-tris propane buffer

Insulin (Homo sapiens), sequence (P01308 whole entry): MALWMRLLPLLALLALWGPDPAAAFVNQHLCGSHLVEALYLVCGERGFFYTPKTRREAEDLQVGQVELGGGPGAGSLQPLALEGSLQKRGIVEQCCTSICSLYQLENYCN

Row | Compound | EC50 [1] [nM] | EC50 [2] [nM] | Ratio EC50 (Homo sapiens [3]) | IC50 [4] [nM] | IC50 [5] [nM] | Ratio IC50 (Homo sapiens [6]) | IC50 [7] [nM] | IC50 [8] [nM] | Ratio IC50 (Rattus norvegicus [9]) | solubility [10] [µM] | solubility [11] [µM] | solubility [12] [µM] | solubility [13] [µM] | TIME (Insulin (Homo sapiens) [16]) [h] | Activity (Insulin (Homo sapiens) [17]) [%] | Activity (Rattus norvegicus [18]) [%] | Activity (Rattus norvegicus [19]) [%] | EC50 [20] [nM] | EC50 [21] [nM] | Ratio EC50 (Rattus norvegicus [22]) | also measured
1 | CC[C@H](C)[C@H](NC(=O)[C@@H]1CCCN1C(=O)CNC(=O)[C@H](Cc1ccccc1)NC(=O)[C@H](CC(N)=O)NC(=O)[C@H](CC(N)=O)NC(=O)[C@H](CO)NC(=O)[C@H](CO)NC(=O)[C@H](CCCNC(=N)N)NC(=O)[C@@H](NC(=O)[C@H](CC(C)C)NC(=O)[C@H](Cc1ccccc1)NC(=O)[C@H](CCC(=O)O)NC(=O)[C@H](C)NC(=O)[C@H](CC(C)C)NC(=O)[C@H](CCCNC(=N)N)NC(=O)[C@H](CCC(N)=O)NC(=O)[C@@H](NC(=O)[C@H](C)NC(=O)[C@@H]1CSSC[C@H](NC(=O)[C@H](Cc2cnc[nH]2)NC(=O)CC[C@H](NC(=O)CCCCCCCCCCCCCCCCCCC(=O)O)C(=O)O)C(=O)N[C@@H](CC(N)=O)C(=O)N[C@@H]([C@@H](C)O)C(=O)N[C@@H](C)C(=O)N[C@@H]([C@@H](C)O)C(=O)N1)[C@@H](C)O)C(C)C)C(=O)N[C@@H](CC(C)C)C(=O)N1CCC[C@H]1C(=O)N1CCC[C@H]1C(=O)N[C@H](C(=O)N[C@@H](CC(N)=O)C(=O)N[C@H](C(=O)NCC(=O)N[C@@H](CO)C(=O)N[C@@H](CC(N)=O)C(=O)N[C@H](C(=O)N[C@@H](Cc1ccc(O)cc1)C(N)=O)[C@@H](C)O)C(C)C)[C@@H](C)O ({C20 diacid-γGlu}-HCNTATCATQRLAEFLVRSSNNFGPILPPTNVGSNTY-NH2; disulfide 2-7) | 0.083 | 0.125 | 2 | 0.499 | 3.25 | 7 | 0.027 | 0.807 | 30 | 200 (≈ 889 µg/mL) | 200 (≈ 889 µg/mL) | 10 (≈ 44.5 µg/mL) | 1 (≈ 4.45 µg/mL) | 5 | 2 | 56 | 59 |  |  |  | solubility [14]: 1 µM (≈ 4.45 µg/mL); solubility [15]: 10 µM (≈ 44.5 µg/mL)
2 | CC[C@H](C)[C@H](NC(=O)[C@@H]1CCCN1C(=O)CNC(=O)[C@H](Cc1ccccc1)NC(=O)[C@H](CC(N)=O)NC(=O)[C@H](CC(N)=O)NC(=O)[C@H](CO)NC(=O)[C@H](CO)NC(=O)[C@H](CCCNC(=N)N)NC(=O)[C@H](Cc1cnc[nH]1)NC(=O)[C@H](CC(C)C)NC(=O)[C@H](Cc1ccccc1)NC(=O)[C@H](CCC(=O)O)NC(=O)[C@H](C)NC(=O)[C@H](CC(C)C)NC(=O)[C@H](CCCNC(=N)N)NC(=O)[C@H](CCC(N)=O)NC(=O)[C@@H](NC(=O)[C@H](C)NC(=O)[C@@H]1CSSC[C@H](NC(=O)[C@H](CCCCN)NC(=O)[C@@H](CCCNC(=N)N)NC(=O)[C@@H](CCCNC(=N)N)NC(=O)COCCOCCNC(=O)COCCOCCNC(=O)CC[C@H](NC(=O)CCCCCCCCCCCCCCCCCCC(=O)O)C(=O)O)C(=O)N[C@@H](CC(N)=O)C(=O)N[C@@H]([C@@H](C)O)C(=O)N[C@@H](C)C(=O)N[C@@H]([C@@H](C)O)C(=O)N1)[C@@H](C)O)C(=O)N[C@@H](CC(C)C)C(=O)N1CCC[C@H]1C(=O)N1CCC[C@H]1C(=O)N[C@H](C(=O)N[C@@H](CC(N)=O)C(=O)N[C@H](C(=O)NCC(=O)N[C@@H](CO)C(=O)N[C@@H](CC(N)=O)C(=O)N[C@H](C(=O)N[C@@H](Cc1ccc(O)cc1)C(N)=O)[C@@H](C)O)C(C)C)[C@@H](C)O ({C20 diacid-γGlu-AEEA-AEEA}-[dR][dR]KCNTATCATQRLAEFLHRSSNNFGPILPPTNVGSNTY-NH2; disulfide 4-9) | 0.078 | 0.608 | 8 | 0.052 | 0.085 | 2 | 0.03 | 0.156 | 5 | 200 (≈ 1020 µg/mL) | 200 (≈ 1020 µg/mL) | 200 (≈ 1020 µg/mL) | 200 (≈ 1020 µg/mL) | 45 | 87 | 24 | 0 | 0.132 | 1.89 | 14 | solubility [23]: 200 µM (≈ 1020 µg/mL); solubility [24]: 200 µM (≈ 1020 µg/mL)
3 | CC[C@H](C)[C@H](NC(=O)[C@@H]1CCCN1C(=O)CNC(=O)[C@H](Cc1ccccc1)NC(=O)[C@H](CC(N)=O)NC(=O)[C@H](CC(N)=O)NC(=O)[C@H](CO)NC(=O)[C@H](CO)NC(=O)[C@H](Cc1cnc[nH]1)NC(=O)[C@H](Cc1cnc[nH]1)NC(=O)[C@H](CC(C)C)NC(=O)[C@H](Cc1ccccc1)NC(=O)[C@H](CCC(=O)O)NC(=O)[C@H](C)NC(=O)[C@H](CC(C)C)NC(=O)[C@H](CCCNC(=N)N)NC(=O)[C@H](CCC(N)=O)NC(=O)[C@@H](NC(=O)[C@H](C)NC(=O)[C@@H]1CSSC[C@H](NC(=O)[C@H](Cc2cnc[nH]2)NC(=O)[C@H](Cc2cnc[nH]2)NC(=O)CC[C@H](NC(=O)CCCCCCCCCCCCCCCCCCC(=O)O)C(=O)O)C(=O)N[C@@H](CC(N)=O)C(=O)N[C@@H]([C@@H](C)O)C(=O)N[C@@H](C)C(=O)N[C@@H]([C@@H](C)O)C(=O)N1)[C@@H](C)O)C(=O)N[C@@H](CC(C)C)C(=O)N1CCC[C@H]1C(=O)N1CCC[C@H]1C(=O)N[C@H](C(=O)N[C@@H](CC(N)=O)C(=O)N[C@H](C(=O)NCC(=O)N[C@@H](CO)C(=O)N[C@@H](CC(N)=O)C(=O)N[C@H](C(=O)N[C@@H](Cc1ccc(O)cc1)C(N)=O)[C@@H](C)O)C(C)C)[C@@H](C)O ({C20 diacid-γGlu}-HHCNTATCATQRLAEFLHHSSNNFGPILPPTNVGSNTY-NH2; disulfide 3-8) | 0.102 | 0.165 | 2 | 0.359 | 0.111 | 0.3 | 0.048 | 0.221 | 5 | 200 (≈ 920 µg/mL) | 200 (≈ 920 µg/mL) | 200 (≈ 920 µg/mL) |  | 30 | 9 | 40 | 22 | 0.147 | 0.221 | 2 | solubility [23]: 200 µM (≈ 920 µg/mL); solubility [24]: 200 µM (≈ 920 µg/mL)
4 | CC(C)C[C@H](NC(=O)[C@H](CCCCN)NC(=O)CNC(=O)[C@H](CC(C)C)NC(=O)[C@@H](NC(=O)[C@@H]1CSSC[C@H](N)C(=O)N[C@@H](CO)C(=O)N[C@@H](CC(N)=O)C(=O)N[C@@H](CC(C)C)C(=O)N[C@@H](CO)C(=O)N[C@@H]([C@@H](C)O)C(=O)N1)C(C)C)C(=O)N[C@@H](CO)C(=O)N[C@@H](CCC(N)=O)C(=O)N[C@@H](CCC(=O)O)C(=O)N[C@@H](CC(C)C)C(=O)N[C@@H](Cc1c[nH]cn1)C(=O)N[C@@H](CCCCN)C(=O)N[C@@H](CC(C)C)C(=O)N[C@@H](CCC(N)=O)C(=O)N[C@H](C(=O)N[C@@H](Cc1ccc(O)cc1)C(=O)N1CCC[C@H]1C(=O)N[C@@H](CCCNC(=N)N)C(=O)N[C@H](C(=O)N[C@@H](CC(N)=O)C(=O)N[C@H](C(=O)NCC(=O)N[C@@H](CO)C(=O)NCC(=O)N[C@H](C(=O)N1CCC[C@H]1C(N)=O)[C@@H](C)O)[C@@H](C)O)[C@@H](C)O)[C@@H](C)O [CALCITONIN SALMON] | 0.002 | 0.003 | 2 |  | 0.066 | 1 | 0.028 | 0.03 | 1 |  |  |  |  |  |  |  |  | 0.001 | 0.0001 |  | 
